Source: patent US20190224251A1, “METHODS OF DIFFERENTIATING STEM CELLS INTO ENDODERM” (MEMORIAL SLOAN-KETTERING CANCER CENTER, priority 2016, published 2019)
Entries after “also recorded” stand apart in the source; their conditions may differ.

Legend:
[1] = system: NKX2.1 expressing lung progenitor cells; assay: Lung progenitor differentiation after transient JNK inhibition during DE differentiation; assay type: cell-based, human; conditions: flow cytometry
Excerpt: (§1) An improved protocol suitable for endoderm derivative lineage differentiation was developed. The improved protocol dispensed with the use of serum and inhibited JNK on the first day of definitive endoderm differentiation (FIG. 13A).

[2] = system: SOX17 and GATA6 enhancers; assay: ChIP-qPCR of SMAD2/3 and JUN binding at the SOX17 and GATA6 enhancers; assay type: cell-based, human; conditions: DE cells at Day 2
Procedure: Definitive endoderm cells at Day 2 were collected for chromatin immunoprecipitation. Cells were cross-linked with 1% formaldehyde (Sigma, F1635) at 37° C. for 15 min and quenched with 0.125 M glycine for 5 min at room temperature. ChIP was performed as previously described 52. Samples were incubated with […] of antibody bound to […] Dynabeads protein G (Thermo Fisher Scientific, 1004D), then incubated overnight at 4° C. 2% pre-cleared chromatin prior to primary antibody addition was kept as input DNA. Magnetic beads were washed and chromatin was eluted, and reverse cross-linked ChIP DNA was dissolved in 10 mM Tris pH 8.0 buffer for further analysis. For ChIP-qPCR, immunoprecipitated DNA was analyzed by qPCR, and the amplification product was expressed as percentage of the 2% input.

HUES8 SOX17GFP/+ cells = assay: Definitive endoderm (DE) differentiation, flow cytometry of SOX17-GFP reporter; assay type: cell-based, human; conditions: for formation of SOX17+ endoderm cells: Activin A and CHIR-99021 treatment, efficiency sensitive to dosages
Procedure: (§2) Human ES or iPS cells were cultured in E8 medium and routinely passed by EDTA. When cells reach to 80-90% confluences, cells were treated with TrpLE Select and get single cell for passaging. Typically, 0.15 millions human ES or iPS cells were plated in one well of the six-well plates with ROCK inhibitor 10 uM in 2 ML E8 media. For the H1 line, it was typically plated 0.1 million cells to accommodate the higher proliferation rate. Twenty-four hours later, cells were washed with PBS once and add Day0 media (Advanced RPMI (Thermo Fisher Scientific, 12633012) with penicillin/streptomycin (Thermo Fisher Scientific, 15070063), GlutaMAX (Thermo Fisher Scientific, 35050079), 0.003% BSA (Thermo Fisher Scientific, 15260037), […] CHIR-99021 (Tocris, 4423) and 100 ng/ml Activin A (PeperoTech, 12014E)). Over the next 2 days, cells were changed to Day2 media (Advanced RPMI with penicillin/streptomycin, GlutaMAX, 0.2% FBS and 100 ng/ml Activin A). […] JNK inhibitor JNK-IN-8 (Selleckchem, S4901) was used during differentiation when indicated. Routinely, around 60-80% SOX17+ cells were obtained in 3 days.
Cells were dissociated using TrypLE Select and resuspended in FACS buffer (5% FBS, 5 mM EDTA in PBS). First, cells were stained with surface antibody (CXCR4-APC) with LIVE/DEAD violet dye (Molecular Probe, L34955, 1:1,000) for 30 minutes at 4° C. After washing, […] After washing with FACS buffer, cells were fixed and permeabilized in 1× fixation/permeabilization buffer (eBioscience, 00-5523-00) for 30 minutes at 4° C. After fixation and permeabilization, cells were stained with intracellular conjugated antibody (SOX17-PE, GATA6-PE, GATA4-Alexa-647) in permeabilization buffer (eBioscience, 00-5523-00) for 30 minutes at 4° C. After washing with permeabilization buffer, cells were resuspended in FACS buffer, and samples were analyzed using BD LSRfortessa or BD LSRII. Flow cytometry analysis and figures were generated in Flowjo 10.

JUN phosphorylation = assay: Western blot of JUN phosphorylation in DE cells; assay type: cell-based, human
Procedure: (§3) Cell pellets were quickly snap frozen in liquid nitrogen and lysated in lysis buffer (Cell Signaling Technology, 9803) with proteinase/phosphatase inhibitors (Cell Signaling Technology, 5872) and 1 mm PMSF (MP Biomedicals, ICN19538105). Proteins were pre-cleared by centrifugation at 14,000 g 4° C. for 10 minutes. Protein concentration was determined by Bradford assay (Bio-Rad, 500-0202). Equal amounts of protein were loaded into Bis-Tris 10% gel (Novex, NP0301BOX) and transferred to nitrocellulose membranes (Novex, LC2001). Membranes were blocked with 5% milk (for non-phosphorylated proteins) or 5% BSA (for phosphorylated proteins). Primary antibody was incubated overnight at 4° C. Membranes were washed with TBST 3 times for 10 minutes each and incubated with secondary antibody for 1 hour at R.T. Membrane were washed with TBST 3 times for 10 minutes each. ECL western blotting detection reagents (Amersham, RPN2236 and Thermo Fisher Scientific, 32106) were used to visualize the protein bands.

H1 cell line = assay: Definitive endoderm (DE) differentiation, flow cytometry of SOX17; assay type: cell-based, human
Procedure: as §2
(§4) Cells were dissociated using TrypLE Select and resuspended in FACS buffer (5% FBS, 5 mM EDTA in PBS). […] After washing with permeabilization buffer, cells were resuspended in FACS buffer, and samples were analyzed using BD LSRfortessa or BD LSRII. […]

[3] = system: C-terminal SMAD2 phosphorylation (Ser465/467) and JUN phosphorylation; assay: Western blotting for signaling crosstalk between Nodal and JNK pathways; assay type: cell-based, human; conditions: 15 minutes and 1 hour after initiating differentiation
Procedure: as §3

[4] = system: DE cells differentiated from human ES cells; assay: Endoderm differentiation in high or low Activin A condition, flow cytometry (CXCR4/SOX17, GATA6/GATA4) and RT-qPCR; assay type: cell-based; conditions: either high or low Activin A condition
Procedure: Human ES or iPS cells were cultured in E8 medium and routinely passed by EDTA. When cells reach to 80-90% confluences, cells were treated with TrpLE Select and get single cell for passaging. Typically, 0.15 millions human ES or iPS cells were plated in one well of the six-well plates with ROCK inhibitor 10 uM in 2 ML E8 media. For the H1 line, it was typically plated 0.1 million cells to accommodate the higher proliferation rate. […]
as §4
Cell pellets were lysed in TRIzol (Thermo Fisher Scientific, 15596018). […] Quantitative real-time PCR was performed in triplicate using ABsolute Blue QPCR SYBR Green Mix with low ROX (Thermo Scientific, #AB4322B) on the ABI PRISM® 7500 Real Time PCR System (Applied Biosystems) using the following protocol: 15 minutes at 95° C. followed by 40 cycles of 15 seconds at 95° C., 30 seconds at 58° C., and 30 seconds at 72° C. The signal was detected at 72° C.

[5] = system: definitive endoderm (SOX17 and CXCR4 expression); assay: Serum-free DE differentiation with JNK inhibition on the first day; assay type: cell-based, human; conditions: one day of JNK inhibition, no serum
Excerpt: as §1

[6] = system: HUES6 ES cells, and BJ and CV iPS cells; assay: Definitive endoderm differentiation in further ES and iPS cell lines, flow cytometry of SOX17; assay type: cell-based, human; conditions: without inhibitor efficiency 60-80%
Procedure: as §2, §4

[7] = system: NKX6.1 and PDX1 expressing pancreatic progenitor cells; assay: Pancreatic progenitor differentiation after transient JNK inhibition during DE differentiation; assay type: cell-based, human; conditions: flow cytometry and immunostaining
Excerpt: as §1

Molecule: Cc1cc(NC(=O)c2cccc(NC(=O)/C=C/CN(C)C)c2)ccc1Nc1nccc(-c2cccnc2)n1 [JNK-IN-8]
- number of NKX2.1 expressing lung progenitor cells [1]: significantly increased
- binding of JUN to the SOX17 and GATA6 enhancers [2]: diminished
- binding of SMAD2/3 to the SOX17 and GATA6 enhancers [2]: enhanced
- DE differentiation (SOX17GFP+ cells) (HUES8 SOX17GFP/+ cells; 1 μm JNK-IN-8, 3 days, HUES8-SOX17GFP, DMSO control ~79%): ~98%
- requirement for Activin A in Activin A dose titration (HUES8 SOX17GFP/+ cells; HUES8 SOX17GFP/+ cells): did not omit the requirement for Activin A
- SOX17+ cells formed (HUES8 SOX17GFP/+ cells; JNK-IN-8 with 20 ng/ml Activin A, HUES8 SOX17GFP/+ cells): ~95%
- phosphorylation of JUN (Western blot) (JUN phosphorylation; JNK-IN-8 1 μm, H1-derived DE cells at day 3): undetectable; also recorded: inhibition of JUN phosphorylation
- total JUN level (Western blot) (JUN phosphorylation; JNK-IN-8 treated cells): down-regulated
- DE differentiation (SOX17+ cells) (H1 cell line; 1 μm JNK-IN-8, 3 days, H1, DMSO control ~66%): ~96%
- effect on DE differentiation at Day 2 versus Day 3 (H1 cell line; 1 μm JNK-IN-8, H1 and HUES8-SOX17GFP): stronger at Day 2
- C-terminal SMAD2 phosphorylation (at Ser465/467) [3]: did not change
- JUN phosphorylation (Western blot) [3]: inhibited
- efficiency of endoderm differentiation based on flow cytometry [4]: greater than 90%
- levels of endoderm gene expression from RT-qPCR [4]: increased
- induction of definitive endoderm (SOX17 and CXCR4 expression) [5]: sufficient to induce differentiation of definitive endoderm
- endoderm differentiation efficiency [6]: significantly improved
- number of NKX6.1 and PDX1 expressing pancreatic progenitor cells [7]: significantly increased

Molecule: NC(=O)c1ccc(-c2nc(-c3ccc4c(c3)OCO4)c(-c3ccccn3)[nH]2)cc1 [SB431542]
- C-terminal SMAD2 phosphorylation (at Ser465/467) [3]: blocked
- JUN phosphorylation (Western blot) [3]: did not affect

Molecule: Cc1c[nH]c(-c2cnc(NCCNc3ccc(C#N)cn3)nc2-c2ccc(Cl)cc2Cl)n1 [CHIR-99021, 6-(2-(4-(2,4-dichlorophenyl)-5-(4-methyl-1H-imidazol-2-yl)pyrimidin-2-ylamino)ethylamino)nicotinonitrile]
- formation of SOX17+ endoderm cells (HUES8 SOX17GFP/+ cells): required
- outcome of prolonged WNT activation (HUES8 SOX17GFP/+ cells; prolonged CHIR-99021 treatment): formation of CXCR4+SOX17− cells

B1: Activin A: TGF-β superfamily member that mimics the activity of Nodal (protein, UniProt P08476 311-426, looked up)
Inhibin beta A chain: GLECDGKVNICCKKQFFVSFKDIGWNDWIIAPSGYHANYCEGECPSHIAGTSGSSLSFHSTVINHYRMRGHSPFANLKSCCVPTKLRPMSMLYYDDGQNIIKKDIQNMIVEECGCS
modifications: Inhibin beta A chain
- formation of SOX17+ endoderm cells (HUES8 SOX17GFP/+ cells): required
- C-terminal SMAD2 phosphorylation (at Ser465/467) [3]: induces
